The values that follow come from PMC9304066, “H2S biogenesis by cystathionine beta-synthase: mechanism of inhibition by aminooxyacetic acid and unexpected role of serine” (Cellular and Molecular Life Sciences: CMLS, 2022).

The term Kd denotes the concentration at which binding is half-saturated.

Molecules are shown by their SMILES.

For one experiment, the target named is T1, tScCBS (Saccharomyces cerevisiae, UniProt P32582).
T1 construct: 6xHis (C); made in house
T1 sequence (P32582 1-345): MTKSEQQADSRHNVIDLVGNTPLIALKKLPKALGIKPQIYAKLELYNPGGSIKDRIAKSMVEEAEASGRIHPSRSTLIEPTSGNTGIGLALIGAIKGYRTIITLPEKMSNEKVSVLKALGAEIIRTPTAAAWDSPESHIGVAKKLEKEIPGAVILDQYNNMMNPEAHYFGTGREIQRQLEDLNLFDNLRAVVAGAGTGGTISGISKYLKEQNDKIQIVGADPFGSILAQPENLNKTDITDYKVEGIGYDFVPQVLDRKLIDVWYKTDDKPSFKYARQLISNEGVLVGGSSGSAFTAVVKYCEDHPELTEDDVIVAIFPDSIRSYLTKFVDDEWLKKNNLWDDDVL
The experiment is described as follows: Fluorescence emission titration of tScCBS (PLP excitation at 410 nm). Format: binding. As to conditions: tScCBS 1 mg/mL, pH 8.5; decrease in emission at 520 nm, excitation 410 nm; read-out: Dissociation constant Kd (fluorescence). The method, then: CBS enzymes. Recombinant truncated Saccharomyces cerevisiae CBS lacking the C-terminal regulatory domain (residues 346–507) and carrying the C-terminal 6xHis tag (tScCBS) was prepared as described previously. Engineered recombinant Homo sapiens CBS lacking a loop protruding from the central β-strand of the CBS2 domain corresponding to the residues 516–525 (HsCBS; described in detail in [21]) was purchased from GenScript.
UV − Vis and fluorescence spectroscopy. Absorption spectra were collected on a Tecan Infinite M200 Pro spectrophotometer in a buffer containing 50 mM Tris–HCl pH 8.5, 20 mM NaCl and 0.5 mM tris(2-carboxyethyl)phosphine (TCEP). All the spectra were carried out with a protein concentration of 1 mg/mL with a 1 cm path-length quartz cuvette in a total volume of 150 µL. tScCBS was titrated directly in a cuvette by successive additions of different concentrations of AOAA, Ser and Cys, respectively, and spectra were recorded between 240 and 600 nm after an incubation time of 3 min at RT. Fluorescence emission spectra were collected under the same conditions upon PLP excitation at 410 nm. Blank spectra were subtracted from sample spectra.

Another experiment has as its system HEK293 cells. The experiment is described as follows: Cell proliferation (BrdU). The following applies: Ser concentrations above 3 mM, 'up to'. Format: cell-based, human. The method, then: Cell culture. The human embryonic kidney cell line HEK293 (ATCC CRL-1573) was cultured in Dulbecco’s Modified Eagle Medium (DMEM) containing 4.5 g/L glucose. The culture medium was supplemented with 10% (v/v) heat-inactivated fetal bovine serum, 2 mM Glutamax, non-essential amino acids, 100 U/ml penicillin and 100 μg/ml streptomycin. Cells were grown in a humidified incubator at 37 °C and 5% CO2 atmosphere. Cell viability and proliferation were assessed using MTT and BrdU assay, respectively, essentially as described previously.

On to `N[C@@H](CO)C(=O)O` [Ser, serine], for which, at tScCBS, the Kd is 39.5 ± 8.26 µM. For the same compound, the “Increase of cellular proliferation” value in the experiment on HEK293 cells was ~ 18%.
